# Source: PubChem BioAssay AID1259407 (Chemical Carcinogenesis Research Information System (CCRIS), 2018)
# Activity calls are given as the source filed them. The rule behind the calls is not given here.
# Tested on: CCRIS mutagenicity, Ames/micronucleus/aberration tests
# Test: CCRIS mutagenicity studies
structure (smiles),measurement,setting,value
O=P1(N(CCCl)CCCl)NCCCO1 (stereo not drawn),mutagenic call,"Test System: AMES SALMONELLA TYPHIMURIUM, Strain/Indicator: TA100, Metabolic Activation: RAT,LIVER, HEPATOCYTES, PHENOBARBITAL, Method: PREINCUBATION",active; positive
same,mutagenic call,"Test System: AMES SALMONELLA TYPHIMURIUM, Strain/Indicator: TA100, Metabolic Activation: S-9, Method: PREINCUBATION",active; positive
same,mutagenic call,"Test System: AMES SALMONELLA TYPHIMURIUM, Strain/Indicator: TA100, Metabolic Activation: S-9, Method: STANDARD PLATE",active; positive
same,mutagenic call,"Test System: AMES SALMONELLA TYPHIMURIUM, Strain/Indicator: TA1535, Metabolic Activation: NONE, Method: SPIRAL ASSAY",active; positive
same,mutagenic call,"Test System: AMES SALMONELLA TYPHIMURIUM, Strain/Indicator: TA1535, Metabolic Activation: RAT (MALE), LIVER, HEPATOCYTES, AROCLOR 1254, Method: STANDARD PLATE",active; positive
same,mutagenic call,"Test System: AMES SALMONELLA TYPHIMURIUM, Strain/Indicator: TA1535, Metabolic Activation: RAT (MALE), LIVER, HEPATOCYTES, Method: STANDARD PLATE",active; positive
same,mutagenic call,"Test System: AMES SALMONELLA TYPHIMURIUM, Strain/Indicator: TA1535, Metabolic Activation: RAT (PREGNANT FEMALE), LIVER, HEPATOCYTES, AROCLOR 1254, Method: STANDARD PLATE",active; positive
same,mutagenic call,"Test System: AMES SALMONELLA TYPHIMURIUM, Strain/Indicator: TA1535, Metabolic Activation: RAT (PREGNANT FEMALE), LIVER, HEPATOCYTES, Method: STANDARD PLATE",inactive; negative
same,mutagenic call,"Test System: AMES SALMONELLA TYPHIMURIUM, Strain/Indicator: TA1535, Metabolic Activation: RAT, LIVER, HEPATOCYTES, PHENOBARBITAL, Method: PREINCUBATION",active; positive
same,mutagenic call,"Test System: AMES SALMONELLA TYPHIMURIUM, Strain/Indicator: TA1535, Metabolic Activation: RAT, LIVER, S-9, AROCLOR 1254, Method: PREINCUBATION",active; positive
same,mutagenic call,"Test System: AMES SALMONELLA TYPHIMURIUM, Strain/Indicator: TA1535, Metabolic Activation: RAT, LIVER, S-9, AROCLOR 1254, Method: SPIRAL ASSAY",active; positive
same,mutagenic call,"Test System: AMES SALMONELLA TYPHIMURIUM, Strain/Indicator: TA1535, Metabolic Activation: RAT, LIVER, S-9, PHENOBARBITAL AND ALPHA-NAPHTHOFLAVONE, Method: STANDARD PLATE",active; positive
same,mutagenic call,"Test System: AMES SALMONELLA TYPHIMURIUM, Strain/Indicator: TA1535, Metabolic Activation: RAT, LIVER, S-9, PHENOBARBITAL, Method: STANDARD PLATE",active; positive
same,mutagenic call,"Test System: AMES SALMONELLA TYPHIMURIUM, Strain/Indicator: TA1535, Metabolic Activation: RAT, LIVER, S-9, Method: STANDARD PLATE",active; positive
same,mutagenic call,"Test System: AMES SALMONELLA TYPHIMURIUM, Strain/Indicator: TA1537, Metabolic Activation: NONE, Method: SPIRAL ASSAY",inactive; negative
same,mutagenic call,"Test System: AMES SALMONELLA TYPHIMURIUM, Strain/Indicator: TA1537, Metabolic Activation: NONE, Method: STANDARD PLATE",inactive; negative
same,mutagenic call,"Test System: AMES SALMONELLA TYPHIMURIUM, Strain/Indicator: TA1537, Metabolic Activation: RAT, LIVER, S-9, AROCLOR 1254, Method: SPIRAL ASSAY",inactive; negative
same,mutagenic call,"Test System: AMES SALMONELLA TYPHIMURIUM, Strain/Indicator: TA1537, Metabolic Activation: S-9, Method: STANDARD PLATE",inactive; negative
same,mutagenic call,"Test System: CHINESE HAMSTER V-79, Strain/Indicator: V-79/6-THIOGUANINE, Metabolic Activation: NONE, Method: SUSPENSION/PLATE",inactive; negative
same,mutagenic call,"Test System: CHINESE HAMSTER V-79, Strain/Indicator: V-79/6-THIOGUANINE, Metabolic Activation: RAT, LIVER, HEPATOCYTES, Method: SUSPENSION/PLATE",active; positive
same,mutagenic call,"Test System: E. COLI, Strain/Indicator: WP2 (HCR), Metabolic Activation: S-9, Method: STANDARD PLATE",active; positive
same,mutagenic call,"Test System: E. COLI, Strain/Indicator: WP2, Metabolic Activation: NONE, Method: FLUCTUATION (MICROTITER)",active; positive
same,mutagenic call,"Test System: E. COLI, Strain/Indicator: WP2 UVRA, Metabolic Activation: HAMSTER, LIVER, S-9, AROCLOR 1254, Method: STANDARD PLATE",inactive; negative
same,mutagenic call,"Test System: E. COLI, Strain/Indicator: WP2 UVRA, Metabolic Activation: HAMSTER, LIVER, S-9, Method: STANDARD PLATE",inactive; negative
same,mutagenic call,"Test System: E. COLI, Strain/Indicator: WP2 UVRA, Metabolic Activation: MOUSE, LIVER, S-9, AROCLOR 1254, Method: STANDARD PLATE",inactive; negative
same,mutagenic call,"Test System: E. COLI, Strain/Indicator: WP2 UVRA, Metabolic Activation: MOUSE, LIVER, S-9, Method: STANDARD PLATE",inactive; negative
same,mutagenic call,"Test System: E. COLI, Strain/Indicator: WP2 UVRA, Metabolic Activation: NONE, Method: FLUCTUATION (MICROTITER)",active; positive
same,mutagenic call,"Test System: E. COLI, Strain/Indicator: WP2 UVRA, Metabolic Activation: NONE, Method: STANDARD PLATE",inactive; negative
same,mutagenic call,"Test System: E. COLI, Strain/Indicator: WP2 UVRA, Metabolic Activation: RAT, LIVER, S-9, AROCLOR 1254, Method: STANDARD PLATE",inactive; negative
same,mutagenic call,"Test System: E. COLI, Strain/Indicator: WP2 UVRA, Metabolic Activation: RAT, LIVER, S-9, Method: STANDARD PLATE",inactive; negative
same,mutagenic call,"Test System: MOUSE LYMPHOMA, Strain/Indicator: L5178Y (TK+/TK-), Metabolic Activation: NONE, Method: SUSPENSION/PLATE",active; positive
same,mutagenic call,"Test System: UDS RAT HEPATOCYTES, Strain/Indicator: THY INCORP, Metabolic Activation: NONE, Method: AUTORADIOGRAPHY",active; positive
same,mutagenic call,"Test System: UDS RAT HEPATOCYTES, Strain/Indicator: THY INCORP, Metabolic Activation: NONE, Method: AUTORADIOGRAPHY (SERUM-FREE MEDIA)",active; positive
